# According to patent publication US20230021483A1, “[…] […] METHOD AND CLASSIFICATION OF PHARMACEUTICAL COMPONENTS BY USING TRANSCRIPTOMES” (National Institutes of Biomedical Innovation, Health and …, priority 2016, published 2023):
# Columns and labels:
# Format in all cases: in vivo, C57BL/6 mice
# [1] = test system: inguinal lymph nodes (LN); test: Whole organ transcriptome (GeneChip microarray) of draining inguinal lymph nodes 6 h after adjuvant administration: sDEGs, gene modules, hierarchical clustering; settings: lymph node; on adjuvant group (cluster) in LN: key: G1 (interferon signaling); G2 (metabolism of lipids and lipoproteins); G3 (response to stress); G4 (response to wounding); G5 (phosphate-containing compound metabolic process); G6 (phagosome)
# [2] = test system: preferentially upregulated genes in LV, SP, LN; test: Z-score-based differential gene expression analysis (adjuvant group- or adjuvant-associated genes, 40 module mapping, TargetMine annotation); settings: ID, LV
# Method in brief: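 Gene groups for each organ were built from combined z-score cutoffs across adjuvants, ranging from z>1 to z>3. Scores came from fold changes standardized per gene over the whole organ data set, with the three replicate z-scores added per adjuvant; sums above 3 marked preferential expression.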
# [3] = test system: LV, SP and LNs; test: Whole organ transcriptome across organs (adjuvant gene space): gene responses and adjuvant grouping
substance,measurement,setting,value
Monophosphoryl lipid A [MPLA],adjuvant group (cluster) in LN,[1]; hierarchical clustering,G1
same,"Number of gene probes with statistically significant changes (sDEGs), LN, Down","[1]; i.d. administration, fold change <0.667, p<0.01, customized PA call=1, 6 h after adjuvant",18
same,"Number of gene probes with statistically significant changes (sDEGs), LN, Up","[1]; i.d. administration, fold change >1.5, p<0.01, customized PA call=1, 6 h after adjuvant",8
same,"Adar 1425405_a_at (Group G1, Modules 20)",[2]; sample x1,−0.2
same,"Adar 1434268_at (Group G1, Modules 20)",[2]; sample x1,−0
same,"Ddx58 1436562_at (Group G1, Modules 20)",[2]; sample x1,−0.3
same,"Ddx58 1456890_at (Group G1, Modules 20)",[2]; sample x1,−0.2
same,"Eif2ak2 1422005_at (Group G1, Modules 20)",[2]; sample x1,−0.3
same,"G3bp2 1421323_a_at (Group G1, Modules 20)",[2]; sample x1,−0.3
same,"Gm9706///Isg15 1431591_s_at (Group G1, Modules 20)",[2]; sample x1,−0.5
same,"H2-T10///H2-T22///H2-T9 1449875_s_at (Group G1, Modules 20)",[2]; sample x1,−0.3
same,"Ifih1 1426276_at (Group G1, Modules 20)",[2]; sample x1,−0.4
same,"Ifit1 1450783_at (Group G1, Modules 20)",[2]; sample x1,−0.5
same,"Ifit3 1449025_at (Group G1, Modules 20)",[2]; sample x1,−0.5
same,"Irf7 1417244_a_at (Group G1, Modules 20)",[2]; sample x1,−0.4
same,"Irgm1 1418825_at (Group G1, Modules 20)",[2]; sample x1,−0.4
same,"Mndal 1426906_at (Group G1, Modules 20)",[2]; sample x1,−0.2
same,"Pml 1448757_at (Group G1, Modules 20)",[2]; sample x1,−0.4
same,"Pml 1456103_at (Group G1, Modules 20)",[2]; sample x1,−0.3
same,"Rnf213 1455500_at (Group G1, Modules 20)",[2]; sample x1,−0.4
same,"Rsad2 1436058_at (Group G1, Modules 20)",[2]; sample x1,−0.5
same,"Shisa5 1423986_a_at (Group G1, Modules 20)",[2]; sample x1,−0.2
same,"Shisa5 1437503_a_at (Group G1, Modules 20)",[2]; sample x1,−0.3
same,"Stat1 1450033_a_at (Group G1, Modules 20)",[2]; sample x1,−0.5
same,"Stat1 1450034_at (Group G1, Modules 20)",[2]; sample x1,−0.4
same,"Tdrd7 1426716_at (Group G1, Modules 20)",[2]; sample x1,−0.3
same,"Tor1aip2 1418115_s_at (Group G1, Modules 20)",[2]; sample x1,−0.4
same,"Tor1aip2 1418116_at (Group G1, Modules 20)",[2]; sample x1,−0
same,"Tor1aip2 1435526_at (Group G1, Modules 20)",[2]; sample x1,−0.2
same,"Trim12a 1437432_a_at (Group G1, Modules 20)",[2]; sample x1,−0.4
same,"Uba7 1426970_a_at (Group G1, Modules 20)",[2]; sample x1,−0.1
same,"Adar 1425405_a_at (Group G1, Modules 20)",[2]; sample x2,−0.4
same,"Adar 1434268_at (Group G1, Modules 20)",[2]; sample x2,−0.3
same,"Ddx58 1436562_at (Group G1, Modules 20)",[2]; sample x2,−0.4
same,"Ddx58 1456890_at (Group G1, Modules 20)",[2]; sample x2,−0.1
same,"Eif2ak2 1422005_at (Group G1, Modules 20)",[2]; sample x2,−0.4
same,"G3bp2 1421323_a_at (Group G1, Modules 20)",[2]; sample x2,−0.6
same,"Gm9706///Isg15 1431591_s_at (Group G1, Modules 20)",[2]; sample x2,−0.5
same,"H2-T10///H2-T22///H2-T9 1449875_s_at (Group G1, Modules 20)",[2]; sample x2,−0.3
same,"Ifih1 1426276_at (Group G1, Modules 20)",[2]; sample x2,−0.4
same,"Ifit1 1450783_at (Group G1, Modules 20)",[2]; sample x2,−0.5
same,"Ifit3 1449025_at (Group G1, Modules 20)",[2]; sample x2,−0.5
same,"Irf7 1417244_a_at (Group G1, Modules 20)",[2]; sample x2,−0.5
same,"Irgm1 1418825_at (Group G1, Modules 20)",[2]; sample x2,−0.5
same,"Mndal 1426906_at (Group G1, Modules 20)",[2]; sample x2,−0.4
same,"Pml 1448757_at (Group G1, Modules 20)",[2]; sample x2,−0.3
same,"Pml 1456103_at (Group G1, Modules 20)",[2]; sample x2,−0.4
same,"Rnf213 1455500_at (Group G1, Modules 20)",[2]; sample x2,−0.5
same,"Rsad2 1436058_at (Group G1, Modules 20)",[2]; sample x2,−0.5
same,"Shisa5 1423986_a_at (Group G1, Modules 20)",[2]; sample x2,−0.4
same,"Shisa5 1437503_a_at (Group G1, Modules 20)",[2]; sample x2,−0.3
same,"Stat1 1450033_a_at (Group G1, Modules 20)",[2]; sample x2,−0.5
same,"Stat1 1450034_at (Group G1, Modules 20)",[2]; sample x2,−0.5
same,"Tdrd7 1426716_at (Group G1, Modules 20)",[2]; sample x2,−0.3
same,"Tor1aip2 1418115_s_at (Group G1, Modules 20)",[2]; sample x2,−0.4
same,"Tor1aip2 1418116_at (Group G1, Modules 20)",[2]; sample x2,−0.3
same,"Tor1aip2 1435526_at (Group G1, Modules 20)",[2]; sample x2,−0.1
same,"Trim12a 1437432_a_at (Group G1, Modules 20)",[2]; sample x2,−0.6
same,"Uba7 1426970_a_at (Group G1, Modules 20)",[2]; sample x2,−0.2
same,"Adar 1425405_a_at (Group G1, Modules 20)",[2]; sample x3,−0.6
same,"Adar 1434268_at (Group G1, Modules 20)",[2]; sample x3,−0.3
same,"Ddx58 1436562_at (Group G1, Modules 20)",[2]; sample x3,−0.5
same,"Ddx58 1456890_at (Group G1, Modules 20)",[2]; sample x3,−0.4
same,"Eif2ak2 1422005_at (Group G1, Modules 20)",[2]; sample x3,−0.4
same,"G3bp2 1421323_a_at (Group G1, Modules 20)",[2]; sample x3,−0.5
same,"Gm9706///Isg15 1431591_s_at (Group G1, Modules 20)",[2]; sample x3,−0.5
same,"H2-T10///H2-T22///H2-T9 1449875_s_at (Group G1, Modules 20)",[2]; sample x3,−0.4
same,"Ifih1 1426276_at (Group G1, Modules 20)",[2]; sample x3,−0.4
same,"Ifit1 1450783_at (Group G1, Modules 20)",[2]; sample x3,−0.5
same,"Ifit3 1449025_at (Group G1, Modules 20)",[2]; sample x3,−0.5
same,"Irf7 1417244_a_at (Group G1, Modules 20)",[2]; sample x3,−0.5
same,"Irgm1 1418825_at (Group G1, Modules 20)",[2]; sample x3,−0.6
same,"Mndal 1426906_at (Group G1, Modules 20)",[2]; sample x3,−0.5
same,"Pml 1448757_at (Group G1, Modules 20)",[2]; sample x3,−0.4
same,"Pml 1456103_at (Group G1, Modules 20)",[2]; sample x3,−0.3
same,"Rnf213 1455500_at (Group G1, Modules 20)",[2]; sample x3,−0.5
same,"Rsad2 1436058_at (Group G1, Modules 20)",[2]; sample x3,−0.5
same,"Shisa5 1423986_a_at (Group G1, Modules 20)",[2]; sample x3,−0.3
same,"Shisa5 1437503_a_at (Group G1, Modules 20)",[2]; sample x3,−0.4
same,"Stat1 1450033_a_at (Group G1, Modules 20)",[2]; sample x3,−0.6
same,"Stat1 1450034_at (Group G1, Modules 20)",[2]; sample x3,−0.5
same,"Tdrd7 1426716_at (Group G1, Modules 20)",[2]; sample x3,−0.4
same,"Tor1aip2 1418115_s_at (Group G1, Modules 20)",[2]; sample x3,−0.6
same,"Tor1aip2 1418116_at (Group G1, Modules 20)",[2]; sample x3,−0.2
same,"Tor1aip2 1435526_at (Group G1, Modules 20)",[2]; sample x3,−0.5
same,"Trim12a 1437432_a_at (Group G1, Modules 20)",[2]; sample x3,−0.5
same,"Uba7 1426970_a_at (Group G1, Modules 20)",[2]; sample x3,−0.6
same,consistency of gene responses among individual mice and organs,"[3]; 6 h, FIG. 5",varying gene responses among the individual mice and organs
same,"distribution/strength of gene responses between local LNs and systemic organs (LV, SP)",[3]; 6 h after i.d. (local) administration,acted on local LNs but not in the systemic remote organs
